Results as given in article PMC7692337, “Masked Phenolic-Selenium Conjugates: Potent and Selective Antiproliferative Agents Overcoming P-gp Resistance” (Pharmaceuticals, 2020).
“Also recorded” adds a separate entry of the source. Like-named read-outs stand apart in the source and are kept apart here.

Experiments:
[1] = system: SW1573; experiment: P-glycoprotein assay, wild type line; type: cell-based; conditions: Homo sapiens, 48 h exposure
Procedure: (§1) This assay allows prediction of whether a certain chemotherapeutic agent could develop chemoresistance when behaving as a P-gp substrate, one of the most common efllux-pumps used for the extrusion of cell xenobiotics. For that purpose, a cell line-based assay was used, in particular the lung cancer cell line in its wild type (SW1573), and its variant overexpressing P-gp (Sw1573/Pgp). Moreover, compounds were tested in the presence and in the absence of verapamil, which is known to inhibit P-gp. Chemotherapeutic agents paclitaxel (PTX) and vinblastine (VB) are used herein as reference compounds. In this assay, the resistance factor (Rf) for a certain compound is defined as the ratio of GI50 in the cell line overexpressing P-gp and the wild one (Table 4), high values of Rf denoting that the compound behaves as a P-gp substrate, and thus, chemoresistance through this mechanism will probably take place.

[2] = system: HeLa (cervix); experiment: Antiproliferative activity, NCI protocol; type: cell-based, human
Procedure: (§2) Organochalcogen derivatives prepared herein were evaluated in vitro as potential antiproliferative agents, using a panel of six human tumour cell lines: A549 (non-small cell lung), HBL-100 (breast), HeLa (cervix), SW1573 (non-small cell lung), as drug sensitive lines, T-47D (breast) and WiDr (colon) as drug resistant lines. In addition to precursors 2, 6, 7, 13, 14, 17, 19, ebselen and cisplatin (CDDP) were used as reference drugs. […] In both cases, the NCI protocol, with minor modifications, was followed; selected data, including the selectivity index (S.I.) can be found in Table 3 and full data in Supporting Information (Table S1).
(§3) The in vitro antiproliferative activity was assayed using minor modifications of the protocol of the National Cancer Institute (NCI) of the United States against the six human solid tumor cell and the non-tumor cell lines tested.

[3] = system: SW1573 (non-small cell lung); experiment: Antiproliferative activity, NCI protocol; type: cell-based, human; conditions: Homo sapiens
Procedure: as §2, §3

[4] = system: T-47D (breast); experiment: Antiproliferative activity, NCI protocol; type: cell-based, human; conditions: Homo sapiens, T47D, read-out: GI50 T-47D (Breast)
Procedure: as §2, §3

[5] = system: A549 (non-small cell lung); experiment: Antiproliferative activity, NCI protocol; type: cell-based, human
Procedure: as §2, §3

[6] = system: HBL-100 (breast); experiment: Antiproliferative activity, NCI protocol; type: cell-based, human
Procedure: as §2, §3

[7] = system: WiDr (colon); experiment: Antiproliferative activity, NCI protocol; type: cell-based, human; conditions: Homo sapiens, WiDr, read-out: GI50 WiDr (Colon)
Procedure: as §2, §3

[8] = P-glycoprotein assay, line overexpressing P-gp; type: cell-based, human; conditions: human, 48 h exposure
Procedure: as §1

[9] = system: SW1573/Pgp; experiment: P-glycoprotein assay, line overexpressing P-gp; type: cell-based, human; conditions: ratio between GI50 values in SW1573/PGP and SW1573 cells
Procedure: as §1

[10] = Free radical scavenging (DPPH method); conditions: 30 min incubation, absorbance at 515 nm, read-out: EC50 antiradical activity (DPPH)
Procedure: (§4) In vitro antioxidant properties of key unprotected phenolic derivatives were analyzed using two different methodologies: free radical scavenging capacity, using the DPPH method (2,2-diphenyl-1-picrylhydrazyl), a HAT (hydrogen atom transfer) procedure, widely-used for both natural and synthetic derivatives, and also the capacity for scavenging H2O2, one of the most common ROS in degenerative diseases, including cancer.
DPPH is a commercially-available stable free radical commonly used for in vitro testing of radical scavenging properties of antioxidants.
Reported methodology was used with minor modifications. To a 60 µM methanolic DPPH solution (1.17 mL), the antioxidant solution (5–7 different solutions, 30 µL) or solvent (control, 30 µL) were added. After 30 min. of incubation in the dark, absorbance was measured at 515 nm, and EC50 values were calculated.

[11] = H2O2 scavenging (phenol red / horseradish peroxidase); conditions: At 50 µM
Procedure: as §4
Herein, following Bahorun’s methodology, in vitro levels of H2O2 were measured in an indirect fashion, by registering the H2O2-mediated oxidation of phenol red in the presence of horseradish peroxidase, to give a chromophore with a maximum absorption at 610 nm. Accordingly, in the presence of an antioxidant agent, there is an inverse correlation between the observed absorbance, and the scavenging properties. Table 2 depicts the H2O2-scavenging properties of compounds prepared herein, and tested at a final 50 µM concentration.
Reported methodology was used with minor modifications.

[12] = system: six human tumour cell lines (A549, HBL-100, HeLa, SW1573, T-47D, WiDr); experiment: Antiproliferative activity, panel of six human tumour cell lines; type: cell-based; conditions: summary over the tested tumour cell lines; highest tested concentration 100 µM
Procedure: as §2, §3

[13] = Homo sapiens, HeLa; read-out: GI50 HeLa (Cervix)
[14] = SW1573, Table S1, read-out: GI50 SW1573 (Lung)
[15] = Homo sapiens, A549; read-out: GI50 A549 (Lung)
[16] = Homo sapiens, HBL-100; read-out: GI50 HBL-100 (Breast)
[17] = Homo sapiens, HeLa, read-out: GI50 HeLa (Cervix)
[18] = SW1573, read-out: GI50 SW1573 (Lung)
[19] = Homo sapiens, A549, read-out: GI50 A549 (Lung)
[20] = Homo sapiens, HBL-100, read-out: GI50 HBL-100 (Breast)

For c1ccc(C[Se]CCc2ccc3c(c2)OCO3)cc1 [Compound 38, 1-Benzylseleno-2-(3’, 4’-methylenedioxyphenyl)ethane], the GI50 ([1]; with verapamil, read-out: GI50 SW153 w Verapamil) was 15 ± 3 µM, the GI50 ([1]; without verapamil, read-out: GI50 SW1573 w/o Verapamil) was 27 ± 2 µM and the GI50 [2, 13] was 5.2 ± 1 µM. The GI50 [3, 14] was 27 ± 5 µM, the GI50 ([4]; drug resistant line) was 4.7 ± 1.2 µM and the GI50 [5, 15] was 19 ± 2 µM. For the same molecule, the GI50 [6, 16] was 14 ± 3 µM, the GI50 ([7]; drug resistant line) was 14 ± 2 µM and the GI50 at 48 h ([8]; with verapamil (concentration not stated), with verapamil, read-out: GI50 SW1573/PGP w Verapamil) was 25 ± 2 µM. The GI50 at 48 h ([8]; without verapamil, read-out: GI50 SW1573/PGP w/o Verapamil) was 29 ± 0.2 µM, the “Rf w Verapamil” value ([9]; with verapamil) was 1.6 and the “Rf w/o Verapamil” value ([9]; without verapamil) was 1.1.
Work on O=C(O)CC[Se][Se]CCC(=O)O [Compound 13, 3,3′-Diselenobispropanoic acid] yielded a GI50 [2, 13] of 18 ± 1 µM, a GI50 [3, 14] greater than 100 µM and a GI50 ([4]; drug resistant line) of 20 ± 8 µM. It also gave a GI50 [5, 15] of 4.1 ± 0.1 µM, a GI50 [6, 16] of 94 ± 8 µM and a GI50 ([7]; drug resistant line) of 5.6 ± 0.6 µM.
O=C1CCCSSCCCC(=O)Oc2cc(CCO)ccc2O1 [Compound 4, [4”-(2”‘-Hydroxyethyl)-1”,2”-phenylene]-4,4’-dithiobisbutyrate] gave a GI50 [2, 13] greater than 100 µM, a GI50 [3, 14] greater than 100 µM and a GI50 ([4]; drug resistant line) greater than 100 µM. It also gave a GI50 [5, 15] greater than 100 µM, a GI50 [6, 16] greater than 100 µM and a GI50 ([7]; drug resistant line) greater than 100 µM. The EC50 [10] was greater than 175 µM and the “% Scavenging of H2O2” value [11] was “complete loss of ROS scavenging properties; also recorded: --- ^2”.
With O=C(O)CCCSSCCCC(=O)O [Compound 2, 4,4′-Dithiobisbuthyric acid] the GI50 [2, 13] was greater than 100 µM, the GI50 [3, 14] was greater than 100 µM and the GI50 ([4]; drug resistant line) was greater than 100 µM. For the same molecule, the GI50 [5, 15] was greater than 100 µM, the GI50 [6, 16] was greater than 100 µM and the GI50 ([7]; drug resistant line) was greater than 100 µM.
With OCCc1ccc(O)c(O)c1 [HT, hydroxytyrosol, reference compound] the EC50 [10] was 13.4 ± 0.6 µM.
In the case of O=c1c2ccccc2[se]n1-c1ccccc1 [Ebselen, 2-phenyl-1,2-benzoselenazol-3-one, reference compound], the GI50 [2, 13] is reported as 26 ± 8 µM, the GI50 [3, 14] is reported as 28 ± 4 µM and the GI50 ([4]; drug resistant line) is reported as 90 ± 14 µM. The GI50 [5, 15] was 25 ± 9 µM, the GI50 [6, 16] was 13 ± 3 µM and the GI50 ([7]; drug resistant line) was greater than 100 µM.
Work on O=C(O)CCSSCCC(=O)O [Compound 7, 3,3′-Dithiobispropionic acid] yielded a GI50 [2, 13] greater than 100 µM, a GI50 [3, 14] greater than 100 µM and a GI50 ([4]; drug resistant line) greater than 100 µM. It also gave a GI50 [5, 15] greater than 100 µM, a GI50 [6, 16] greater than 100 µM and a GI50 ([7]; drug resistant line) greater than 100 µM.
N#C[Se]CCC(=O)O [Compound 19, 3-Selenocyanatopropanoic acid] gave a GI50 [2, 17] of 32 ± 10 µM, a GI50 [3, 18] greater than 100 µM and a GI50 [4] of 36 ± 1 µM. It also gave a GI50 [5, 19] of 18 ± 6 µM, a GI50 [6, 20] of 93 ± 9 µM and a GI50 [7] of 28 ± 4 µM.
In the case of O=c1c2ccccc2[se]n1CCc1ccc(O)c(O)c1 [Compound 26, N-[2′-(3′’,4′’-Dihydroxyphenyl)ethyl]-1,2-benzisoselenazole-3(2H)-one], the “GI50 over the tumour cell lines (range, bound or words)” value [12] is reported as “moderate antiproliferative properties”, the GI50 [2, 17] is reported as 21 ± 6 µM and the GI50 [3, 18] is reported as 21 ± 12 µM. For the same molecule, the GI50 [4] was 28 ± 6 µM, the GI50 [5, 19] was 21 ± 7 µM and the GI50 [6, 20] was 21 ± 4 µM. It also gave a GI50 [7] of 30 ± 3 µM and an EC50 [10] of 7.8 ± 0.2 µM.
